For this test, the system named is BDF1 mice, L1210 6-MP/6-TG resistant leukemia ip, survival T/C. In words: NCI In Vivo Anticancer Drug Screen. Data for tumor model L1210 Leukemia resistant to 6-MP and 6-Thioguanine; NSC 755, NSC 752 (intraperitoneal) in B6D2F1 (BDF1) mice. To be noted: endpoint: mean survival time, higher = longer survival. The protocol:
The antitumor activity of compounds was measured in mice bearing transplantable tumors. Survival or tumor size were measured and the results are expressed as the measurement made in the treated group (T) divided by the measurement made in the vehicle treated control group (C). The tumor model used in this assay is L1210 Leukemia resistant to 6-MP and 6-Thioguanine; NSC 755, NSC 752 (intraperitoneal) in B6D2F1 (BDF1) mice

Where [1] appears, read: dose: 25.0 mg/kg/injection, schedule: Q01DX Z (ip), vehicle: carboxymethylcellulose (CMC).
Where [2] appears, read: dose: 100.0 mg/kg/injection, schedule: Q01DX Z (ip), vehicle: carboxymethylcellulose (CMC).
Where [3] appears, read: dose: 125.0 mg/kg/injection, schedule: Q01DX Z (ip), vehicle: carboxymethylcellulose (CMC).
Where [4] appears, read: dose: 250.0 mg/kg/injection, schedule: Q01DX Z (ip), vehicle: carboxymethylcellulose (CMC).
The mark [5] stands for this setting: dose: 2.5 mg/kg/injection, schedule: Q01DX Z (ip), vehicle: carboxymethylcellulose (CMC).
Where [6] appears, read: dose: 1.87 mg/kg/injection, schedule: Q01DX Z (ip), vehicle: saline.
Setting [7] is: dose: 12.5 mg/kg/injection, schedule: Q01DX Z (ip), vehicle: carboxymethylcellulose (CMC).

The record followed here is PubChem BioAssay AID308 (DTP/NCI, 2004).

Where “and” joins values, the source holds several entries; their conditions need not be identical. Identical values can stand only once. Toxic doses and inconclusive results are not listed.

Take `CC(=O)OCC1OC(n2cnc3c(=S)nc(N)[nH]c32)C(OC(C)=O)C1OC(C)=O` (configuration not stated): the T/C by setting is: (dose: 1.0 mg/kg/injection, schedule: Q01DX Z (ip), vehicle: other) 89 % of control; (dose: 2.0 mg/kg/injection, schedule: Q01DX Z (ip), vehicle: other) 89 % of control; (dose: 4.0 mg/kg/injection, schedule: Q01DX Z (ip), vehicle: other) 101 % of control; (dose: 6.0 mg/kg/injection, schedule: Q01DX Z (ip), vehicle: other) 92 % of control; (dose: 12.5 mg/kg/injection, schedule: Q01DX Z (ip), vehicle: other) 98 % of control; (dose: 25.0 mg/kg/injection, schedule: Q01DX Z (ip), vehicle: other) 93 % of control.
Regarding `O=c1[nH]c(=O)n(C2CC(O)C(CO)O2)cc1I` (configuration not stated), the T/C is, setting by setting: (dose: 20.0 mg/kg/injection, schedule: Q01DX Z (ip), vehicle: carboxymethylcellulose (CMC)) 108 % of control; under setting [1], 121 % of control; (dose: 30.0 mg/kg/injection, schedule: Q01DX Z (ip), vehicle: carboxymethylcellulose (CMC)) 95 % of control; (dose: 40.0 mg/kg/injection, schedule: Q01DX Z (ip), vehicle: carboxymethylcellulose (CMC)) 87 % of control; (dose: 60.0 mg/kg/injection, schedule: Q01DX Z (ip), vehicle: carboxymethylcellulose (CMC)) 108 % of control; (dose: 75.0 mg/kg/injection, schedule: Q01DX Z (ip), vehicle: carboxymethylcellulose (CMC)) 182 % of control. Besides, the T/C is 154 % of control under setting [2]; 115 % of control under setting [3]; 100 % of control under setting [4]; 93 % of control (dose: 375.0 mg/kg/injection, schedule: Q01DX Z (ip), vehicle: carboxymethylcellulose (CMC)).
On to `Cn1c(O)c(N=NC(N)=S)c2ccccc21`, for which the T/C was 100 % of control under setting [1]; 105 % of control (dose: 50.0 mg/kg/injection, schedule: Q01DX Z (ip), vehicle: carboxymethylcellulose (CMC)); 104 % of control under setting [2]; 88 % of control (dose: 200.0 mg/kg/injection, schedule: Q01DX Z (ip), vehicle: carboxymethylcellulose (CMC)).
Consider `OCn1cnc2c(SC3CCCC3)ncnc21`, for which the T/C was 91 % of control (dose: 12.5 mg/kg/injection, schedule: Q01DX009 (ip), vehicle: other); 89 % of control and 93 % of control (dose: 50.0 mg/kg/injection, schedule: Q01DX009 (ip), vehicle: other).
Turning to `Nc1nc(=S)c2[nH]cnc2[nH]1`, the T/C was 123 % of control (dose: 0.37 mg/kg/injection, schedule: Q01DX Z (ip), vehicle: carboxymethylcellulose (CMC)); 92 % of control (dose: 0.5 mg/kg/injection, schedule: Q01DX Z (ip), vehicle: carboxymethylcellulose (CMC)); 101 % of control (dose: 0.75 mg/kg/injection, schedule: Q01DX Z (ip), vehicle: carboxymethylcellulose (CMC)); 103 % of control (dose: 1.0 mg/kg/injection, schedule: Q01DX Z (ip), vehicle: carboxymethylcellulose (CMC)); 104 % of control (dose: 1.25 mg/kg/injection, schedule: Q01DX Z (ip), vehicle: carboxymethylcellulose (CMC)); 95 % of control under setting [5].
Take `C=C(C)CSc1ncnc2nc[nH]c12`: the T/C is, setting by setting: (dose: 62.0 mg/kg/injection, schedule: Q01DX015 (ip), vehicle: other) 109 % of control; (dose: 125.0 mg/kg/injection, schedule: Q01DX015 (ip), vehicle: other) 95 % of control; (dose: 250.0 mg/kg/injection, schedule: Q01DX015 (ip), vehicle: other) 100 % of control.
Consider `CN(C)c1ccc(/C=C/c2ccnc3ccccc23)cc1`, for which the T/C is, setting by setting: under setting [6], 115 % of control; (dose: 3.75 mg/kg/injection, schedule: Q01DX Z (ip), vehicle: saline) 109 % of control; (dose: 7.5 mg/kg/injection, schedule: Q01DX Z (ip), vehicle: saline) 115 % of control; (dose: 15.0 mg/kg/injection, schedule: Q01DX Z (ip), vehicle: saline) 110 % of control; (dose: 25.0 mg/kg/injection, schedule: Q01DX Z (ip), vehicle: saline) 102 % of control; (dose: 50.0 mg/kg/injection, schedule: Q01DX Z (ip), vehicle: saline) 90 % of control.
For the molecule `Nc1nc2n[nH]nc2c(=O)[nH]1`, the T/C by setting is: (dose: 12.5 mg/kg/injection, schedule: Q01DX Z (ip), vehicle: water) 100 % of control; (dose: 25.0 mg/kg/injection, schedule: Q01DX Z (ip), vehicle: water) 104 % of control; (dose: 50.0 mg/kg/injection, schedule: Q01DX Z (ip), vehicle: water) 98 % of control; (dose: 100.0 mg/kg/injection, schedule: Q01DX Z (ip), vehicle: water) 92 % of control; (dose: 200.0 mg/kg/injection, schedule: Q01DX Z (ip), vehicle: water) 95 % of control.
For the molecule `S=P(N1CCOCC1)(N1CC1)N1CC1`, the T/C (dose: 1.87 mg/kg/injection, schedule: Q01DX Z (ip), vehicle: carboxymethylcellulose (CMC)) is 90 % of control; the T/C under setting [5] is 93 % of control; the T/C (dose: 3.75 mg/kg/injection, schedule: Q01DX Z (ip), vehicle: carboxymethylcellulose (CMC)) was 151 % of control; the T/C (dose: 5.0 mg/kg/injection, schedule: Q01DX Z (ip), vehicle: carboxymethylcellulose (CMC)) is 117 % of control; the T/C (dose: 7.5 mg/kg/injection, schedule: Q01DX Z (ip), vehicle: carboxymethylcellulose (CMC)) was 116 % of control; the T/C under setting [7] was 109 % of control. For the same molecule, the T/C (dose: 15.0 mg/kg/injection, schedule: Q01DX Z (ip), vehicle: carboxymethylcellulose (CMC)) is 118 % of control.
Regarding `CCn1cnc2c(SC3CCCC3)ncnc21`, the T/C was 98 % of control under setting [3] and 98 % of control under setting [4].
`NC(=O)N(CCCl)N=O`: the T/C reads like this: (dose: 0.47 mg/kg/injection, schedule: Q01DX Z (ip), vehicle: saline) 220 % of control; (dose: 0.93 mg/kg/injection, schedule: Q01DX Z (ip), vehicle: saline) 265 % of control; (dose: 1.25 mg/kg/injection, schedule: Q01DX Z (ip), vehicle: saline) 236 % of control; under setting [6], 158 % of control; (dose: 5.0 mg/kg/injection, schedule: Q01DX Z (ip), vehicle: saline) 92 % of control.
As for `CC(=O)O[C@]1(C(C)=O)CC[C@H]2[C@@H]3C[C@H](C)C4=CC(=O)C=C[C@]4(C)[C@@]3(F)[C@@H](O)C[C@@]21C`, the T/C (dose: 37.5 mg/kg/injection, schedule: Q01DX Z (sc), vehicle: steriod suspending solution) was 101 % of control and the T/C (dose: 100.0 mg/kg/injection, schedule: Q01DX Z (sc), vehicle: steriod suspending solution) was 89 % of control.
Take `CSc1ncc(Br)c(Sc2nc(N)nc3nc[nH]c23)n1`: the T/C (dose: 3.12 mg/kg/injection, schedule: Q01DX Z (ip), vehicle: carboxymethylcellulose (CMC)) is 100 % of control; the T/C (dose: 6.25 mg/kg/injection, schedule: Q01DX Z (ip), vehicle: carboxymethylcellulose (CMC)) is 95 % of control; the T/C under setting [7] is 88 % of control.
`CSc1ncnc2nc[nH]c12`: the T/C was 89 % of control (dose: 30.0 mg/kg/injection, schedule: Q01DX015 (ip), vehicle: carboxymethylcellulose (CMC)); 97 % of control (dose: 31.0 mg/kg/injection, schedule: Q01DX Z (ip), vehicle: carboxymethylcellulose (CMC)); 103 % of control (dose: 45.0 mg/kg/injection, schedule: Q01DX015 (ip), vehicle: carboxymethylcellulose (CMC)); 88 % of control (dose: 60.0 mg/kg/injection, schedule: Q01DX015 (ip), vehicle: carboxymethylcellulose (CMC)); 92 % of control (dose: 62.5 mg/kg/injection, schedule: Q01DX Z (ip), vehicle: carboxymethylcellulose (CMC)); 89 % of control (dose: 75.0 mg/kg/injection, schedule: Q01DX015 (ip), vehicle: carboxymethylcellulose (CMC)). Besides, the T/C was 86 % of control (dose: 90.0 mg/kg/injection, schedule: Q01DX015 (ip), vehicle: carboxymethylcellulose (CMC)); 95 % of control and 104 % of control (dose: 120.0 mg/kg/injection, schedule: Q01DX001 (ip), vehicle: carboxymethylcellulose (CMC)); 88 % of control under setting [3]; 92 % of control (dose: 180.0 mg/kg/injection, schedule: Q01DX001 (ip), vehicle: carboxymethylcellulose (CMC)); 94 % of control (dose: 270.0 mg/kg/injection, schedule: Q01DX001 (ip), vehicle: carboxymethylcellulose (CMC)).
